From ChEMBL document CHEMBL4130360, “Synthesis of 2-imino and 2-hydrazono thiazolo[4,5-d]pyrimidines as corticotropin releasing factor (CRF) antagonists” (Eur J Med Chem, 2017)

Each compound was assayed against T1, Corticotropin-releasing factor receptor 1 (Homo sapiens, UniProt P34998) (assay: Displacement of [125I]-Tyr0-sauvagine from human CRFR1 expressed in HEK293 cell membrane homogenates after 120 mins by gamma counting method).
T1 sequence (P34998 whole entry): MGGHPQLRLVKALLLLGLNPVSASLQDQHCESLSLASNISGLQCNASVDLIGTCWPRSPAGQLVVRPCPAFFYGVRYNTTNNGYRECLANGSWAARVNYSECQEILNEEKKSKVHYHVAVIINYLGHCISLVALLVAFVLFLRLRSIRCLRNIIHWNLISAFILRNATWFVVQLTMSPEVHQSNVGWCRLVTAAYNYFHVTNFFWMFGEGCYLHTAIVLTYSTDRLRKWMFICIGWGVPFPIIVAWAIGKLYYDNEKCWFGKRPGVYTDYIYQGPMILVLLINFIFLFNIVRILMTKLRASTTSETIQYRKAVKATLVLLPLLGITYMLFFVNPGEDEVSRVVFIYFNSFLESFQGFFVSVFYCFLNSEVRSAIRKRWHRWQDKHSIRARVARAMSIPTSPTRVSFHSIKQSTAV
Assay type: cell membranes

IC50 [nM]	SMILES
447	CCN(CC)c1nc(C)nc2c1s/c(=N/N)n2-c1c(C)cc(C)cc1C
891	CCN(CC)c1nc(C)nc2c1sc(=N)n2-c1c(C)cc(C)cc1C
170	CCCCN(CC)c1nc(C)nc2c1sc(=N)n2-c1c(C)cc(C)cc1C
